According to paper PMC10443802, “Targeting a xenobiotic transporter to ameliorate vincristine-induced sensory neuropathy” (JCI Insight, 2023):
Where “and” joins values, the source holds several entries; their conditions need not be identical. Identical values can stand only once.

Columns and labels:
mice [1] = experiment: Nerve conduction studies (sciatic/digital and caudal nerve action potential amplitude and conduction velocity)
DRG neurons = experiment: DRG morphology and morphometry (neuron cell area); assay type: in vivo, mouse
mice [2] = experiment: Thermal hyperalgesia, Hargreaves test (paw withdrawal latency)
[3] = Vincristine accumulation in DRG and liver (tissue to plasma AUC ratio)
Experimental: injection at a dose of 1 mg/kg. Whole blood samples were collected 0.08, 0.25, 0.5, 1, and 4 h, and livers were collected at the final time point.
specimens were stored at -80°C until further processing.
stainless steel bead (Qiagen) and processed for 4 min at 40 Hz. Finally, the beads were removed, and the homogenized samples were stored at -80°C until analysis by LC-MS/MS.
Pharmacokinetic parameters were calculated by non -compartmental analysis using Phoenix WinNonlin version 8.0 (Certara). Peak plasma concentration (C max) was determined by visual inspection of the data from the concentration-time curves. The linear trapezoidal rule was used to obtain the area under the plasma concentration-time curve (AUC), and drug levels in tissues were corrected for
Quantiva triple quadrupole mass spectrometer from Thermo Fisher Scientific was used for LC-MS/MS
analysis. An Accucore aQ column (150 × 2.1 mm, dp = 2.6 μm, Thermo Fisher Scientific) was protected
volume was 5.0 μL. The temperature of the autosampler rack was 4°C, and the temperature of the
column was maintained at 50°C. Mobile phase A consisted of water with 0.1% (v/v) formic acid and
mobile phase B consisted of acetonitrile: methanol (1:1) with 0.1% (v/v) formic acid. The total run time […]
Precursor molecular ions and product ions were recorded for confirmation and
quantification was 5 ng/mL. […]

mice [4] = test system: mice
hOATP1B1 = target: T1, hOATP1B1 (Homo sapiens, UniProt Q9Y6L6); experiment: Inhibition of vincristine uptake in HEK293 cells overexpressing hOATP1B1; conditions: inhibitor 15 min pre-treatment
T1 sequence (Q9Y6L6 1-691): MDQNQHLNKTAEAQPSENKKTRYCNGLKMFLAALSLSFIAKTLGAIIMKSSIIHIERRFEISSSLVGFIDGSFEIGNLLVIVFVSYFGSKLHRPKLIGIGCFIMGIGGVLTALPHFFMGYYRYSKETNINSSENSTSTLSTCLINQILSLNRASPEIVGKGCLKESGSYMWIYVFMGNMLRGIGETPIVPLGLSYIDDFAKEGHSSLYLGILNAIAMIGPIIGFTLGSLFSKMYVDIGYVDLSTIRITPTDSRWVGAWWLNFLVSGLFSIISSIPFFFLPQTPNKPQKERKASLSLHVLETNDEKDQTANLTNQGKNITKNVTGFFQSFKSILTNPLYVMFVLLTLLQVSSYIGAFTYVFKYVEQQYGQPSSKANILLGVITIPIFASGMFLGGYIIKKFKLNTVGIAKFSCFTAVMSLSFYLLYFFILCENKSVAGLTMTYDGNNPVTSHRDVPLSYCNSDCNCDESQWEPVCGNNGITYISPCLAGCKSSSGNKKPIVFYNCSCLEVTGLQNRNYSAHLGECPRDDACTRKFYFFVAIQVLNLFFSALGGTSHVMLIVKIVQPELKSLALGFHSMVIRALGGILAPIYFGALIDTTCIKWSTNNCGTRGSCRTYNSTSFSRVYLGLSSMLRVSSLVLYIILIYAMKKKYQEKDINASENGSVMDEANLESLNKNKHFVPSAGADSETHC

MOLT4 = experiment: Cytotoxicity of vincristine with or without nilotinib, MTT assay, MOLT4; assay type: cell-based, human; conditions: vincristine alone, individual replicates
rOCT1 = rOCT1 (Rattus norvegicus, UniProt Q63089); experiment: Vincristine uptake screen, HeLa cells overexpressing rOCT1; assay type: in vitro ADME
Experimental: (§1) Relative uptake is expressed as percentage change compared with empty vector controls (n = 4–14 per group). […] Human OATP1B1 and OATP1B3 transporter–overexpressed cells were used as positive controls; empty vector controls were used as the negative control. […] Mechanical allodynia (C), thermal hyperalgesia (D), and sciatic nerve maximal action potential amplitudes (E) are expressed as percentage change relative to baseline values (n = 6–8 per group). Statistical analysis was performed using a 2-way ANOVA with Bonferroni’s post hoc test. **P < 0.01, ***P < 0.001, ****P < 0.0001, compared with baseline values. […] Data are shown as mean ± SEM. […]
(§2) transfected with transporters of interest, including hOAT1, hOAT3, hOAT4, hOATP1A2, hOATP3A1, hOATP4A1, hOATP5A1, hOATP1C1, hOATP1B1, hOATP1B3, hOATP2B1, hOCT1, hOCT2, hOCTN1, hOCTN2, hASBT, hNTCP, hNPT1, hMATE1, hOSTα/β, hPEPT1, hPEPT2, rOatp1a1, rOatp1a4, rOatp1a5, rOatp1b2, rNtcp, rAsbt, rOat1, and rOct1. Cells were transfected with expression plasmid or vector control lacking any insert using Lipofectin reagent (Invitrogen). Sixteen hours thereafter, cells were washed with transport media (OPTIMEM, Invitrogen) and treated with radiolabeled drug. […] The cellular radioactivity was quantified by liquid scintillation counting as described above. […]

hOCTN1 = hOCTN1 (Homo sapiens, UniProt Q9H015); experiment: Vincristine uptake screen, HeLa cells overexpressing hOCTN1; assay type: in vitro ADME
Experimental: as §1, §2

[5] = OATP1B2(-/-) mice + Nilotinib, Baseline
[6] = OATP1B2(-/-) mice + Nilotinib, Week 4
[7] = WT mice, nilotinib 100 mg/kg p.o. 30 min before each vincristine 1 mg/kg, 4 weeks
[8] = Wild-type mice + Nilotinib, Baseline
[9] = Wild-type mice + Nilotinib, Week 4
[10] = KO (OATP1B2-/-) mice, vincristine 1 mg/kg weekly i.p. + vehicle pretreatment, 4 weeks
[11] = OATP1B2(-/-) mice, vincristine 1 mg/kg weekly, Week 4

Chain of hOCTN1 (Q9H015 whole entry): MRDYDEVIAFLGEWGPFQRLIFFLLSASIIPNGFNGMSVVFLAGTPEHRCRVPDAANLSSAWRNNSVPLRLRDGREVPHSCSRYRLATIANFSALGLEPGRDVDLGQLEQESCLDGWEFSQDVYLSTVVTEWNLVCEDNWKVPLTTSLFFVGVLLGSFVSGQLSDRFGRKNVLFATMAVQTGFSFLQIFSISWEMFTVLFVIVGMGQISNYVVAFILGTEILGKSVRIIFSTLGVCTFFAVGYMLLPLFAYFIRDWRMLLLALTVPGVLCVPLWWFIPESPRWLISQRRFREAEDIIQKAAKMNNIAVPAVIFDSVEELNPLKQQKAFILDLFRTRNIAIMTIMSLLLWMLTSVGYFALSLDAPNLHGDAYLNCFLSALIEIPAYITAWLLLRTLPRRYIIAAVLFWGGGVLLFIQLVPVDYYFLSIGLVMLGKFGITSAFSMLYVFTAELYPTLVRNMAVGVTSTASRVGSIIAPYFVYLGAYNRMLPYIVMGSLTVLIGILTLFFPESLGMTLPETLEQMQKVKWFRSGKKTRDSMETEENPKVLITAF
Chain of rOCT1 (Q63089 whole entry): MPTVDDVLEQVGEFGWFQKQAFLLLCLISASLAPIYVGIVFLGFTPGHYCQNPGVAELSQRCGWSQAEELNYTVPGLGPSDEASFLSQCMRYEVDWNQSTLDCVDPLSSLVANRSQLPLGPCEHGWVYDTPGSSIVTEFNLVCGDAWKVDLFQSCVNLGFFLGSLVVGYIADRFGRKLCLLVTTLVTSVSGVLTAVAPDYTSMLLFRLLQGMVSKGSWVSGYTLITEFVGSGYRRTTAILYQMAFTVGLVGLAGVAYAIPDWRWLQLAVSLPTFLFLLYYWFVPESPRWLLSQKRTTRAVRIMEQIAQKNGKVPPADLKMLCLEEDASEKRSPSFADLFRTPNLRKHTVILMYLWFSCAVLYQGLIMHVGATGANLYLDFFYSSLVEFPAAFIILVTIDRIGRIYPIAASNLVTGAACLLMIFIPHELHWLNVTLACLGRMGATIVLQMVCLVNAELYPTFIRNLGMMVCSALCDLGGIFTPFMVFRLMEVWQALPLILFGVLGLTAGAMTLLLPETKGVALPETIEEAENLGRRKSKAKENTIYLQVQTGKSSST

Compound: Cc1cn(-c2cc(NC(=O)c3ccc(C)c(Nc4nccc(-c5cccnc5)n4)c3)cc(C(F)(F)F)c2)cn1 [Nilotinib, nilotinib]
- Caudal nerve amplitude (mice [1]; [5]): 95.6% and 93.7% and 108.6% and 106% and 98.1%
- Caudal nerve velocity (mice [1]; [5]): 102.8% and 100.9% and 101.1% and 98% and 97.3%
- Sciatic nerve amplitude (mice [1]; [5]): 114.4% and 121.2% and 118.7% and 82.8% and 93.6% and 69.3%
- Sciatic nerve velocity (mice [1]; [5]): 95.7% and 106.4% and 97.8% and 107.3% and 98.7% and 94.1%
- Caudal nerve amplitude (mice [1]; [6]): 89.3% and 94% and 95.6% and 104.4% and 86.9%
- Caudal nerve velocity (mice [1]; [6]): 97.1% and 98.5% and 95% and 100.3% and 98.1% and 98.7%
- Sciatic nerve velocity (mice [1]; [6]): 92.3% and 108.6% and 101.5% and 100.5% and 93.7% and 102.8%
- Sciatic nerve amplitude (mice [1]; [7]): 108.6 %Δ from baseline and 88.8 %Δ from baseline and 77.9 %Δ from baseline and 89.5 %Δ from baseline and 98.8 %Δ from baseline and 89.1 %Δ from baseline
- Caudal nerve amplitude (mice [1]; [8]): 120.6% and 88.2% and 115.9% and 89.2% and 91.2% and 94.8%
- Caudal nerve velocity (mice [1]; [8]): 98.2% and 90.4% and 108% and 104.2% and 102% and 97.3%
- Sciatic nerve amplitude (mice [1]; [8]): 97.8% and 93% and 117% and 84.6% and 113.5% and 94%
- Sciatic nerve velocity (mice [1]; [8]): 102.2% and 108.4% and 96.7% and 95.6% and 94.8%
- Caudal nerve amplitude (mice [1]; [9]): 63.6% and 79.9% and 91.5% and 110.8% and 56.5% and 79.7%
- Caudal nerve velocity (mice [1]; [9]): 92.7% and 93.3% and 98.1% and 103.4% and 110.3% and 95.5%
- Sciatic nerve amplitude (mice [1]; [9]): 89.1% and 108.6% and 88.8% and 77.9% and 89.5% and 98.8%
- Sciatic nerve velocity (mice [1]; [9]): 101.8% and 112.7% and 95.6% and 97.9% and 93.4% and 98.9%
- Cell area changes (%Δ from baseline) (DRG neurons; OATP1B2(-/-) mice + Nilotinib): 0.695% and -1.012% and -0.86%
- Cell area changes (%Δ from baseline) (DRG neurons; Wild-type mice + Nilotinib): 0.351% and -0.994% and -0.034%
- Prevention of vincristine-induced reduction in cell size of DRG neurons (DRG neurons; nilotinib 100 mg/kg p.o. pretreatment): could be prevented by pretreatment with nilotinib
- Paw withdrawal latency (%Δ from baseline) (mice [2]; KO (OATP1B2-/-) mice, nilotinib 100 mg/kg p.o. 30 min before each vincristine 1 mg/kg, 4 weeks): 81.1 %Δ from baseline and 88.2 %Δ from baseline and 119.5 %Δ from baseline and 100.4 %Δ from baseline and 93.8 %Δ from baseline and 69.5 %Δ from baseline
- Paw withdrawal latency (%Δ from baseline) (mice [2]; [7]): 137.5 %Δ from baseline and 110.5 %Δ from baseline and 107.4 %Δ from baseline and 126 %Δ from baseline and 95.3 %Δ from baseline and 92.7 %Δ from baseline
- Influence of pretreatment on accumulation of vincristine in whole DRG samples ([3]; nilotinib 100 mg/kg, vincristine 1 mg/kg): significantly diminished by nilotinib
- Protection against vincristine-associated changes in mechanical allodynia, thermal hyperalgesia and sciatic nerve maximal AMP (mice [4]; 100 mg/kg orally 30 minutes before each of 4 vincristine doses of 1 mg/kg): effectively protected against treatment-associated changes
- Vincristine uptake (% of vehicle) (hOATP1B1): 101.303 % of vehicle and 90.7094 % of vehicle and 62.8074 % of vehicle and 106.906 % of vehicle and 107.581 % of vehicle and 108.402 % of vehicle

Compound: CC[C@]1(O)C[C@H]2CN(CCc3c([nH]c4ccccc34)[C@@](C(=O)OC)(c3cc4c(cc3OC)N(C=O)[C@H]3[C@@](O)(C(=O)OC)[C@H](OC(C)=O)[C@]5(CC)C=CCN6CC[C@]43[C@@H]65)C2)C1 [Vincristine, vincristine]
- IC50 (MOLT4; Homo sapiens, MOLT-4, MOLT4 cells): 6.88 nM
- IC50 (MOLT4; MOLT4 cells): 6.2 nM and 9.07 nM and 9.04 nM and 7.56 nM and 10.2 nM and 7.73 nM and 7.86 nM and 6.95 nM
- Sciatic nerve amplitude (mice [1]; [10]): 107.5 %Δ from baseline and 81.9 %Δ from baseline and 90.9 %Δ from baseline and 97.4 %Δ from baseline and 87.3 %Δ from baseline and 91.9 %Δ from baseline and 109.9 %Δ from baseline
- Sciatic nerve amplitude (mice [1]; [11]): 90.9 %Δ from baseline and 97.4 %Δ from baseline and 87.3 %Δ from baseline and 91.9 %Δ from baseline and 109.9 %Δ from baseline and 107.5 %Δ from baseline and 81.9 %Δ from baseline
- Cell size of DRG neurons (DRG neurons; WT mice, vincristine 1 mg/kg weekly, 4 weeks): reduction in cell size of DRG neurons
- Vincristine uptake (% of vector control) (rOCT1): 113.00 % of vector control and 108.00 % of vector control and 138.00 % of vector control and 121.00 % of vector control
- Paw withdrawal latency (%Δ from baseline) (mice [2]; [10]): 115.4 %Δ from baseline and 102.8 %Δ from baseline and 99.5 %Δ from baseline and 93.2 %Δ from baseline and 105.4 %Δ from baseline and 88 %Δ from baseline and 77.4 %Δ from baseline
- Paw withdrawal latency (%Δ from baseline) (mice [2]; [11]): 94.3 %Δ from baseline and 92.7 %Δ from baseline and 101.2 %Δ from baseline and 102.2 %Δ from baseline and 111.0 %Δ from baseline and 84.6 %Δ from baseline and 112.1 %Δ from baseline
- Paw withdrawal latency (%Δ from baseline) (mice [2]; WT mice, vincristine 1 mg/kg weekly i.p. + vehicle pretreatment, 4 weeks): 66.8 %Δ from baseline and 70.6 %Δ from baseline and 94.2 %Δ from baseline and 54.6 %Δ from baseline and 68.3 %Δ from baseline and 64.2 %Δ from baseline and 82.5 %Δ from baseline
- Paw withdrawal latency (%Δ from baseline) (mice [2]; Wild-type mice, vincristine 1 mg/kg weekly, Week 4): 61.8 %Δ from baseline and 39.1 %Δ from baseline and 56.0 %Δ from baseline and 42.8 %Δ from baseline and 56.3 %Δ from baseline and 55.6 %Δ from baseline
- Vincristine uptake (% of vector control) (hOCTN1): 169.00 % of vector control and 132.00 % of vector control and 109.00 % of vector control and 131.00 % of vector control and 135.00 % of vector control and 167.00 % of vector control and 158.00 % of vector control
- Uptake of vincristine in liver and whole DRG samples ([3]; OATP1B2-deficient vs WT mice, LC/MS/MS or MALDI-MS imaging): decreased uptake of vincristine
- Protection against treatment-related mechanical allodynia by OATP1B2 deficiency (mice [4]; mouse, in vivo): protection against treatment-related mechanical allodynia was only observed
